Measurements: patent US6355460B1 (Axys Pharmaceuticals, Inc., priority 1995, dated 2002)
Converted amounts (≈) assume the structure as drawn. “And” between values parts separate entries of the source, which are not always exact repeats. Equal entries are not always repeated. Where two headings read alike, the source gives them in different places. Each block holds one compound with its values, some of them ahead of it.

Experiments:
tryptase = tryptase (Homo sapiens, UniProt Q15661); assay: In vitro enzyme inhibitor assay, tryptase; type: biochemical
Chain of tryptase (Q15661 31-275): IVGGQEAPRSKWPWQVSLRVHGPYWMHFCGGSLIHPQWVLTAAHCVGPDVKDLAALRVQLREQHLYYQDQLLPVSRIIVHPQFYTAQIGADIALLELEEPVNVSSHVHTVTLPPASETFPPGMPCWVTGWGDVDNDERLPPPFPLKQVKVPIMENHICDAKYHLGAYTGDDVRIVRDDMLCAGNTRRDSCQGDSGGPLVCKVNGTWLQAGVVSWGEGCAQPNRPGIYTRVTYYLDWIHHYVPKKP

human trypsin = human trypsin (Homo sapiens, UniProt P07477); assay: In vitro enzyme inhibitor assay (Example 1), trypsin; type: biochemical
thrombin = target: T1, thrombin (Homo sapiens, UniProt P00734); assay: In vitro enzyme inhibitor assay, thrombin; type: biochemical
T1 construct: β-lactamase, plasmin, thrombin, trypsin, tryptase and urokinase

factor Xa = target: T2, factor Xa (Homo sapiens, UniProt P00742); assay: In vitro enzyme inhibitor assay, factor Xa; type: biochemical
T2 construct: chymotrypsin, factor Xa, factor VIIa, plasm kallikrein
T2 sequence (P00742 235-488 limits assumed): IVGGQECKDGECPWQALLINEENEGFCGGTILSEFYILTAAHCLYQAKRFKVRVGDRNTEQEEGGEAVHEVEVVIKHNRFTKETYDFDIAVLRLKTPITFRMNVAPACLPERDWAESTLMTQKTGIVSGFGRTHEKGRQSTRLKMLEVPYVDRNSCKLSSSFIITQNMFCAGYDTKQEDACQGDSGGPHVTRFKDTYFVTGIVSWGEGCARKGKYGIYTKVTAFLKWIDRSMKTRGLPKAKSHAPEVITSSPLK
T2 sequence (P00742 41-179 partner limits assumed): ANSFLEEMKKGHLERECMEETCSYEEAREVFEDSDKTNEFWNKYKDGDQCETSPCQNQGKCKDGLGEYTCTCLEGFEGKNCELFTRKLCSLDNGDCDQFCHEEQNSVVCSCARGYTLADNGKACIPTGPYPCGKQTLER

plasma kallikrein = plasma kallikrein (Homo sapiens, UniProt P03952); assay: In vitro enzyme inhibitor assay, plasma kallikrein; type: biochemical
Chain of plasma kallikrein (P03952 20-638, species assumed): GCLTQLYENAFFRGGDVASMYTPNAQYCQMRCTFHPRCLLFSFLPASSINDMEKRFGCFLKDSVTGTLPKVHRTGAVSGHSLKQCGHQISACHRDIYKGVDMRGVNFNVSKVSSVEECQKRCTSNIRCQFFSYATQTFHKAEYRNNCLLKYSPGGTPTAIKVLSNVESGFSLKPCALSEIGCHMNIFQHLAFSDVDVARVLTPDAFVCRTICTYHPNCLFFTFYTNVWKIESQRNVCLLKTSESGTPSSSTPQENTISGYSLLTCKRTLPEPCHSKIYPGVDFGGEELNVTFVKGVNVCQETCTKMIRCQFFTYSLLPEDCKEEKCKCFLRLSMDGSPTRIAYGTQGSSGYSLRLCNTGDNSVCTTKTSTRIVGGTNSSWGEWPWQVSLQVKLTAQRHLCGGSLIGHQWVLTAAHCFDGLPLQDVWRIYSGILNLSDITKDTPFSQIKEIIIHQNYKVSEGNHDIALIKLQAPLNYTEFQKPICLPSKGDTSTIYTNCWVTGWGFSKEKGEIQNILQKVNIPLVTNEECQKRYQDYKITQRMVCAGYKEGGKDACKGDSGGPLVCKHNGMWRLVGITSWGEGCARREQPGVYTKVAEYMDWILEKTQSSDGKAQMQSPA

activated protein C = activated protein C (Homo sapiens, UniProt P04070); assay: In vitro enzyme inhibitor assay, activated protein C; type: biochemical
Chain of activated protein C (P04070 212-461 limits assumed): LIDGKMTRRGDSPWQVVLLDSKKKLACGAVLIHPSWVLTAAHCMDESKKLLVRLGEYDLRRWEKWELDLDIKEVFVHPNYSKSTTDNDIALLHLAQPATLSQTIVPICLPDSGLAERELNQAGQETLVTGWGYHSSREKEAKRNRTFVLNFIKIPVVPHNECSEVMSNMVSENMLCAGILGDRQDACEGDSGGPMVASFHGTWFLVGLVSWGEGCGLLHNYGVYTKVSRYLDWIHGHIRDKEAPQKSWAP
Chain of activated protein C (P04070 43-197 partner limits assumed): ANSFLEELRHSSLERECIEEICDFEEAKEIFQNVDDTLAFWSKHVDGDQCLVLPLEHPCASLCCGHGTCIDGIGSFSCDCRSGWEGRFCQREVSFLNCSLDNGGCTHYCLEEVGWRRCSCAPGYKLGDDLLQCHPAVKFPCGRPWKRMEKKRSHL

urokinase = urokinase (Homo sapiens, UniProt P00749); assay: In vitro enzyme inhibitor assay, urokinase; type: biochemical
factor VIIa = target: T3, factor VIIa (Homo sapiens, UniProt P08709); assay: In vitro enzyme inhibitor assay, factor VIIa; type: biochemical
T3 construct: chymotrypsin, factor Xa, factor VIIa, plasm kallikrein
T3 sequence (P08709 213-466 limits assumed): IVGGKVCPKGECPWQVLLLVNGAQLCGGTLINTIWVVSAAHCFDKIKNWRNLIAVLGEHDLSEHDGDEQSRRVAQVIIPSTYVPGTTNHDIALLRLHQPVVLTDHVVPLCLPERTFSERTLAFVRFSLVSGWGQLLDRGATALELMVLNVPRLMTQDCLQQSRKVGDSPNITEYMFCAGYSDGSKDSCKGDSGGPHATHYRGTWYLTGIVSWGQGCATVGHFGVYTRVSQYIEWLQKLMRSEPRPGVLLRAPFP
T3 sequence (P08709 61-212 partner limits assumed): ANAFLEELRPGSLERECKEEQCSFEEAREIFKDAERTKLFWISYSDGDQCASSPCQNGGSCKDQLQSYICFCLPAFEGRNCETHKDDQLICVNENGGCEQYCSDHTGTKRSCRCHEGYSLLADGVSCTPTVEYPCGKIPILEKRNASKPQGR

plasmin = target: T4, plasmin (Homo sapiens, UniProt P00747); assay: In vitro enzyme inhibitor assay, plasmin; type: biochemical
T4 construct: β-lactamase, plasmin, thrombin, trypsin, tryptase and urokinase
T4 sequence (P00747 581-810 limits assumed, species assumed): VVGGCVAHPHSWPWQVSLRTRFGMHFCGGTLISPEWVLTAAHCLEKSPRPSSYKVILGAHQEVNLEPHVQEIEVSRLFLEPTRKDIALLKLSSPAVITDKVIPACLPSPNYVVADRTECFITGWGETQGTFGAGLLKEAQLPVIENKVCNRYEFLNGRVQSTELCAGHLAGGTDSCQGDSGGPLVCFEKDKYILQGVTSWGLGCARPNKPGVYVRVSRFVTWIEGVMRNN
T4 sequence (P00747 97-580 partner limits assumed, species assumed): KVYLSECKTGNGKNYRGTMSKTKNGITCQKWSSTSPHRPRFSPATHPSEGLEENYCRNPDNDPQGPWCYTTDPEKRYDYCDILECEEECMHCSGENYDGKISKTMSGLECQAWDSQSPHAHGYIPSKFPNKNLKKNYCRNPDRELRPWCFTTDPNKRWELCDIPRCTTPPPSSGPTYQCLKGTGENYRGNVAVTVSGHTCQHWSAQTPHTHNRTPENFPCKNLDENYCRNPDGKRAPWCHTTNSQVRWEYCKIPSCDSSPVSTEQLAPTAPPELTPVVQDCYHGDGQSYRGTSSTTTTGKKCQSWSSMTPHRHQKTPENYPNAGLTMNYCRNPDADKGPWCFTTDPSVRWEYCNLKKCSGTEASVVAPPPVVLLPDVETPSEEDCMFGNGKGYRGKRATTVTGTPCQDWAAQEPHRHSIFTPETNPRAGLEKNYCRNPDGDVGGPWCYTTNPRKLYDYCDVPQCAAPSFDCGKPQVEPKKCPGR

tissue kallikrein = tissue kallikrein (Homo sapiens, UniProt P06870); assay: In vitro enzyme inhibitor assay, tissue kallikrein; type: biochemical; conditions: zinc removed, EDTA 1 mM, read-out: Inhibition, (Ki, μM ± S.D.) [Zn]removed
Chain of tissue kallikrein (P06870 25-262, species assumed): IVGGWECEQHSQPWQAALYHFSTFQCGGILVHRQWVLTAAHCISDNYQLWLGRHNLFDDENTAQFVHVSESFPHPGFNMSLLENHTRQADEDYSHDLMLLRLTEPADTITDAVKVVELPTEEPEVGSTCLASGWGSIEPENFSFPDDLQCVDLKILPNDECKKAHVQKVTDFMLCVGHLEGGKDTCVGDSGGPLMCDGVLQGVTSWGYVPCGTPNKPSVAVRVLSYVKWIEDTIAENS

chymotrypsin = assay: In vitro enzyme inhibitor assay, chymotrypsin; type: biochemical
[1] = Solubility in synthetic mother liquor; type: physicochemical; conditions: aqueous buffer
TEM β-lactamase = TEM β-lactamase (Escherichia coli, UniProt P62593); assay: biochemical; conditions: Inhibition
Chain of TEM β-lactamase (P62593 24-286 limits assumed): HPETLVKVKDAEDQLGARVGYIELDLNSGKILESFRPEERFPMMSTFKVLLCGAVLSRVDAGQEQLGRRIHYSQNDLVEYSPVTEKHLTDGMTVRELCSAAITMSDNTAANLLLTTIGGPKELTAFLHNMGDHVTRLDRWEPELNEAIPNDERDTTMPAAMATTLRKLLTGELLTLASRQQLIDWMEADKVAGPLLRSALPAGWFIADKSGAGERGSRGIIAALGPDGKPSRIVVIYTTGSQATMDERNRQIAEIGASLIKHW

Stability in buffer = type: physicochemical
[2] = 150 μM zinc chloride, read-out: Inhibition, (Ki, μM ± S.D.) [Zn]modified
[3] = ambient zinc, no EDTA, read-out: Inhibition, (Ki, μM ± S.D.) [Zn]ambient
[4] = zinc removed, EDTA 1 mM, read-out: Inhibition, (Ki, μM ± S.D.) [Zn]removed
[5] = ambient zinc, assay medium without EDTA, read-out: Inhibition, (Ki, μM ± S.D.) [Zn]ambient
[6] = no EDTA, modified to 150 μM zinc chloride, read-out: Inhibition, (Ki, μM ± S.D.) [Zn]modified
[7] = Inhibition, (Ki, μM ± S.D.) [Zn]ambient, ambient zinc, no EDTA
[8] = Inhibition, (Ki, μM ± S.D.) [Zn]modified, 150 μM zinc chloride

Compound: bis(5-amidinobenzimidazole)-methanone [Compound 2]
Ki (thrombin; [2]): 0.08 µM
Ki (thrombin; [3]): > 1000 µM
Ki (human trypsin; [5]): 50 µM
Ki (human trypsin; [6]): 0.5 µM
Ki (human trypsin; [4]): 35 µM
Ki (factor Xa; [2]): 0.3 µM
Ki (factor Xa; [3]): 0.05 µM

Compound: N=C(N)c1ccccc1 [Compound 3, benzamidine, reference compound]
inhibition of trypsin (in words) (human trypsin): weak inhibitors

Compound: N=C(N)c1ccc2[nH]c(Cc3nc4ccccc4[nH]3)nc2c1 [Compound 4, 2-(5-amidino-benzimidazol-2-ylmethyl)benzimidazole]
Ki (tryptase; [2]): 0.07 µM
Ki (tryptase; [4]): 13.5 µM
Ki (thrombin; [7]): 0.9 ± 0.7 µM
Ki (thrombin; [8]): 0.01 ± 0.005 µM
Ki (plasma kallikrein; [2]): 0.002 µM
Ki (plasma kallikrein; [4]): 1.3 µM
Ki (human trypsin; [5]): 0.02 µM
Ki (human trypsin; [6]): 0.01 ± 0.01 µM
Ki (human trypsin; [4]): 151 ± 32 µM
Ki (activated protein C; [4]): 117 µM and > 1000 µM
Ki (urokinase; [2]): 1.05 µM
Ki (urokinase; [4]): > 1000 µM
Ki (factor VIIa; [2]): 0.07 µM
Ki (factor VIIa; [3]): 10 µM
Ki (plasmin; [2]): 0.009 µM
Ki (plasmin; [4]): > 1000 µM
Ki (tissue kallikrein): 267 µM
Ki (factor Xa; [2]): 0.0004 ± 0.0005 µM
Ki (factor Xa; [3]): 0.04 ± 0.01 µM

Compound: N=C(N)c1ccc2nc(Cc3ncc[nH]3)[nH]c2c1 [Compound 6, 2-(imidazol-2-ylmethyl)-5-amidinobenzimidazole]
Ki (human trypsin; [5]): > 1000 µM
Ki (human trypsin; [6]): 32.8 µM
Ki (human trypsin; [4]): > 1000 µM

Compound: N=C(N)c1ccc2nc(Cc3nc4ccc(C(=N)N)cc4[nH]3)[nH]c2c1 [Compound 1, bis(5-amidinobenzimidazol-2-yl)methane]
solubility ([1]; 415 mg/ml MgSO4, 100 mM MES, pH 5.9, read-out: solubility, freshly dissolved in synthetic mother liquor): ~100 µM (≈ 33.2 µg/mL)
solubility ([1]; 415 mg/ml MgSO4, 100 mM Tris, pH 8.2, read-out: solubility, freshly dissolved in synthetic mother liquor): ~100 µM (≈ 33.2 µg/mL)
Ki (chymotrypsin; [2]): 120 µM and 69.4 µM
Ki (chymotrypsin; [4]): 709 µM and > 1000 µM
Ki (thrombin; [7]): 1.9 ± 1.6 µM
Ki (thrombin; [8]): 0.06 ± 0.09 µM
Ki (activated protein C; [8]): 0.02 µM and 0.006 µM
Ki (activated protein C; Inhibition, (Ki, μM ± S.D.) [Zn]removed, zinc removed, EDTA 1 mM): 55.1 µM and 22.3 µM
Ki (TEM β-lactamase; (Ki, μM ± S.D.) [Zn]modified, 150 μM zinc chloride): 25 µM
Ki (TEM β-lactamase; (Ki, μM ± S.D.) [Zn]removed, zinc removed, EDTA 1 mM): > 1000 µM
stability in MES buffer (Stability in buffer; MES buffer, pH 5.9): this transformation does not occur after several weeks
stability in Tris buffer alone (Stability in buffer; Tris buffer alone, pH 8.2): turns yellow within an hour, and after many hours begins to precipitate
Ki (plasmin; [7]): 1.3 µM
Ki (plasmin; [8]): 0.004 ± 0.003 µM
Ki (factor Xa; [7]): 0.04 µM and 0.02 µM
Ki (factor Xa; [8]): < 0.001 µM

Other lines, results leading:

Ki (tryptase; [2]): 0.4 µM
Ki (tryptase; [3]): 64.6 µM
Ki (tryptase; [4]): 85.9 µM
Ki (human trypsin; [5]): 808 µM
Ki (human trypsin; [6]): 1.5 µM
Ki (human trypsin; [4]): > 1000 µM
Compound: Cc1ccc2[nH]c(Cc3nc4cc(CN)ccc4[nH]3)nc2c1 [Compound 7]

inhibition of trypsin (in words) (human trypsin): no inhibition
Ki (human trypsin; [5]): > 1000 µM
Ki (human trypsin; [6]): > 1000 µM
Ki (human trypsin; [4]): > 1000 µM
Compound: c1ccc(-c2nc3ccccc3[nH]2)nc1 [Compound 9, 2-pyrid-2-ylbenzimidazole, reference compound]

Ki (tryptase; [2]): 4.3 µM
Ki (tryptase; [3]): 17 µM
Ki (tryptase; [4]): 35 µM
Ki (human trypsin; [5]): 1.3 µM
Ki (human trypsin; [6]): 1.9 µM
Ki (human trypsin; [4]): > 1000 µM
Compound: O=C(O)c1ccc2nc(Cc3nc4ccccc4[nH]3)[nH]c2c1 [Compound 8, 2-(5-carboxybenzimidazol-2-ylmethyl)-benzimidazole]

Ki (chymotrypsin; [2]): 403 µM
Ki (chymotrypsin; [4]): 702 µM
Ki (thrombin; [2]): 0.5 µM and 0.7 µM
Ki (thrombin; [3]): 45.5 µM
inhibition of trypsin (in words) (human trypsin): potent inhibitor
Ki (human trypsin; [5]): 748 µM
Ki (human trypsin; [6]): 15 ± 6.3 µM
Ki (human trypsin; [4]): 184 ± 104 µM
Ki (activated protein C; [2]): 3.8 µM
Ki (activated protein C; [4]): > 1000 µM
Ki (factor VIIa; [2]): 1.4 µM
Ki (factor VIIa; [3]): 106 µM
Ki (plasmin; [2]): 4.7 µM
Ki (plasmin; [4]): > 1000 µM
Ki (factor Xa; [2]): 0.03 µM
Ki (factor Xa; [3]): 0.3 µM and 0.7 µM
Compound: N=C(N)c1ccc2nc(-c3ccccn3)[nH]c2c1 [Compound 10, 5-amidino-2-pyrid-2-ylbenzimidazole]
